Entries after “also recorded” stand apart in the source; their conditions may differ. Each block holds one molecule with its values, some of them ahead of it.
Columns and labels:
T6PNE cells = assay: fat clearance assay in palmitate-treated T6PNE cells (Oil Red O, Nile Red, triglyceride); type: cell-based, human; conditions: for fat clearance (stored fat by Oil Red O and Nile Red staining): 0.25 mM palmitate for 2 days; for effect on fat clearance induced by NCT: palmitate, inhibitor or siRNA plus NCT
Experimental: Oil red O and Nile Red staining were used to measure lipid accumulation. Oil Red O staining was done as known in the art. Briefly, fixed cells were incubated with Oil Red O solution (Poly Scientific) for 3 h, followed by photomicrography (Olympus, IX71). For Nile Red staining, dye (1: 500 in PBS from 1 mg/ml in ethanol stock, Sigma) was added for 30 mins and DAPI added for 10 mins at room temperature. Quantification of Nile Red staining was done with a Celigo imaging cytometer (Nexcelom Bioscience). More than 4000 cells were analyzed for each quantification. The number of Nile Redpositive cells was normalized to the DAPI-positive cell number for each well and fold change was calculated relative to a DMSO control well.
Palmitate (150 mM) (Sigma-Aldrich) was prepared in 50% ethanol and precomplexed with 15% fatty acid-free BSA (Research Organics, Cleveland, Ohio, USA) in a 37 C water shaker. BSA-precomplexed palmitate was used as a 12 mM stock solution for all assays with a final concentration of 0.25 mM palmitate in cell culture medium.
siRNAs were purchased from Ambion. For transfections, 24 μL of each siRNA (1 μM stock) was mixed with 90 μL of a 1:100 dilution of Lipofectamine RNAi MAX (Invitrogen, Waltham, Mass., USA) in Opti-MEM. Transfection was done in 24 well plates (Thermo Fisher Scientific, Waltham, Mass., USA), by incubation with cells for 30 min. at room temperature. One day after transfection, cells were transferred to 96 well plates (2000 cells per well) and incubated at 37° C. for an additional day. Forty-eight hours after transfection, either palmitate-BSA complex or BSA control plus or minus compounds was added for 2 days. For validation of siRNAs, transfected cells were harvested for RNA purification and QPCR for each gene 2 days after transfection.
The bicinchoninic acid (BCA) protein assay kit assay (Thermo scientific) was used to measure protein amount for DART, Western blotting and TG assays. Absorbance at 550 nm was determined using a plate reader.

CYP26A1 mRNA = CYP26A1 mRNA in T6PNE cells; type: cell-based, human; conditions: 2 days, 0.25 mM palmitate, NCT 10 μM, 4-OH-RA 20 μM
Experimental: Quantitative PCR (Q-PCR) from in vitro cell culture experiments used total RNA purified using RNeasy Kits (Qiagen). For liver tissue samples, total RNA was isolated using Trizol (Invitrogen) and prepared for RNAseq (mouse liver DMSO and NCT, N=3). cDNA was amplified using 3 μg of total RNA using qScript cDNA SuperMix (Quanta BioSciences, Beverly, Mass., USA). QPCR analysis was performed using SYBR® Select Master Mix (Applied Biosystems) and ABI 7900HT (Applied Biosystems, Thermo Fisher Scientific). The Ct values of mRNA expression were then normalized to the 18 s rRNA values and are expressed as fold change over samples from mice fed normal chow for in vivo experiments or DMSO controls for cell culture experiments.

p62 = p62 Western blot in T6PNE cells; type: cell-based, human; conditions: NCT 10 μM, RA 10 μM, fenretinide
Experimental: (§1) Whole-cell extracts were prepared by incubation in RIPA buffer (Invitrogen) containing protease inhibitors (Calbiochem, San Diego, Calif.). Protein ([…]) was separated on 12% or 16% Tri-Glycine gels (Invitrogen) and transferred to Immobilon P membrane (0.2 μm pore, Millipore). After 1 h in phosphate-buffered saline-Tween (PBST) with 3% milk, membrane was incubated with antibodies to HNF4α (mouse, Novus, 1:1000), LC3B (rabbit, Novus, 1:500), p62 (SQSTM1, mouse, Santa Cruz, 1:1000) or β-actin (mouse, Santa Cruz, 1:2000), followed by secondary antibody conjugated to horseradish peroxidase (1:5000, Jackson Immune).

dihydroceramides = assay: lipidomic analysis of ceramides and dihydroceramides in T6PNE cells; type: cell-based, human
Experimental: Ceramides and dihydroceramides were measured in the UCSD Lipidomics Core Facility as previously described (Quehenberger et al.). Briefly, samples were extracted using the butanol: methanol (BUME) method. The lipid layer was collected and run on a Thermo-Vanquish UPLC (Thermo Scientific) with a Cortecs T3 (C18), 2.1 mm×150 mm; 1.8 uT3 column and a binary solvent system. Mass spectrometry employed a Thermo Q Exactive instrument with MS/MS data dependent acquisition scan mode and LipidSearch software (Thermo Fisher Scientific).

human insulin promoter = assay: modified insulin promoter assay repressed with palmitate; type: cell-based; conditions: insulin promoter activity repressed with palmitate
Experimental: Alverine and benfluorex were ascertained in a modification of the insulin promoter assay in which the level of insulin promoter activity was repressed with palmitate. […] Cells were treated with 0.25 mM palmitate for 2 days in the presence and absence of NCT or NFT (10 μM).

HNF4α [1] = biological target: T1, HNF4α (Homo sapiens, UniProt P41235); assay: T6PNE insulin promoter assay (human insulin promoter-GFP transgene); type: cell-based; parameters: endogenous in cells; host or cells: T6PNE cells; conditions: T6PNE cells, GFP-positive cells relative to DMSO
T1 sequence (P41235 1-474): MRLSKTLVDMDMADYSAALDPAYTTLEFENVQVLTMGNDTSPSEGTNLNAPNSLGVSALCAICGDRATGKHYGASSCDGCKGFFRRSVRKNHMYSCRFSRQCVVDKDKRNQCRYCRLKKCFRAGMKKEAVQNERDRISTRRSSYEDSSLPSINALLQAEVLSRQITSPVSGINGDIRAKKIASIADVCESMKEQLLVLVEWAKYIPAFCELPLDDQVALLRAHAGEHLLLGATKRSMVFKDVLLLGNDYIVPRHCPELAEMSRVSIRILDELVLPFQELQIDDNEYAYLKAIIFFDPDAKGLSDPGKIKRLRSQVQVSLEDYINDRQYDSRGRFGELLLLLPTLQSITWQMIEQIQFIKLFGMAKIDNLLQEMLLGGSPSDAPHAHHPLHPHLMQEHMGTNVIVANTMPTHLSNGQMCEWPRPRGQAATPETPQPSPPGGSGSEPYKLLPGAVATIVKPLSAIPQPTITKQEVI
Experimental: The T6PNE insulin promoter assay has been described previously and was performed here with slight modifications as follows: T6PNE cells were seeded at 200 cells per well in 384-well tissue culture plates (Greiner Bio-One) in the presence of 0.5 μM tamoxifen. Compounds described herein in DMSO were dispensed with an Echo 555 Acoustic Liquid Handler (Beckman Coulter). Three days after compound addition, cells were fixed in 4% paraformaldehyde (USBio) for 15 min and stained with DAPI (0.167 μg/ml, Invitrogen). Blue (DAPI) and green (GFP) channels were imaged using a Celigo imaging cytometer (Nexcelom Bioscience). The number of GFPpositive cells was normalized to the DAPI-positive cell number and fold change calculated relative to the DMSO control.
T6PNE cells were maintained in RPMI (5.5mM glucose, Corning) supplemented with 10% fetal bovine serum (FBS, Sigma-Aldrich) and 1% penicillin-streptomycin (pen-strep, Gibco). Cells were maintained in 5% CO2 at 37° C. For the insulin promoter assay, 0.5 μM tamoxifen (Sigma-Aldrich) was added to T6PNE cell culture media. HepG2 or HeLa cells were cultured in DMEM (high glucose, Corning) supplemented with 10% FBS and 1% pen-strep and maintained at 5% CO2, 37° C.

HNF4α [2] = conditions: previous finding, cited from earlier work
HNF4α [3] = biological target: T1, HNF4α; assay: DARTS assay (HNF4α protease sensitivity) in HepG2 cells; type: binding; parameters: Total cell protein was extracted; endogenous in cells; host or cells: HepG2 cells; conditions: 40 or 80 μM for 16 h, subtilisin
Experimental: DARTS assays were conducted as described in the art. HepG2 cells were treated with DMSO, BI6015, NCT, NFT at a concentration of 40 or 80 μM for 16 hr. Total cell protein was extracted and measured by BCA protein assay (Thermo Scientific). Each sample was split into two aliquots for proteolysis without (−) or with (+) Subtilisin (Sigma-Aldrich). Forty […] of cell lysate was incubated with or without protease (40 ng/ml subtilisin) for 35 min at room temperature.
as §1

[4] = clinical trials for type 2 diabetes; cited from earlier work

Molecule: CCCCCCCCc1ccc(CCC(N)(CO)CO)cc1 [FTY720]
fat clearance (stored fat by Oil Red O and Nile Red staining) (T6PNE cells): neither S1P nor FTY720 had any effect on fat clearance

Molecule: CCCCCCCCCCCCC/C=C/[C@@H](O)[C@@H](N)COP(=O)(O)O [S1P, sphingosine-1-phosphate]
fat clearance (stored fat by Oil Red O and Nile Red staining) (T6PNE cells): did not have any effect on fat storage; also recorded: neither S1P nor FTY720 had any effect on fat clearance

Molecule: Nn1nnc2ccccc21 [ABT]
effect on fat clearance induced by NCT (T6PNE cells): inhibited fat clearance by NCT

Molecule: CCC(CC)C(c1ccc(Nc2nc3ccccc3s2)cc1)n1cncn1 (centres unmarked) [talarazole]
effect on fat clearance induced by NCT (T6PNE cells): inhibited fat clearance by NCT

Molecule: dihydroceramide
fat clearance (stored fat by Oil Red O and Nile Red staining) (T6PNE cells): active at inducing fat clearance

Molecule: CC1=C(/C=C/C(C)=C/C=C/C(C)=C/C(=O)O)C(C)(C)CCC1O (centres unmarked) [4-OH RA, reference compound]
fat clearance (stored fat by Oil Red O and Nile Red staining) (T6PNE cells): induced fat clearance from T6PNE cells | CYP26A1 mRNA level (CYP26A1 mRNA): induced an increase in CYP26A1 mRNA

Molecule: CC1=C(/C=C/C(C)=C/C=C/C(C)=C/C(=O)Nc2ccc(O)cc2)C(C)(C)CCC1 [Fenretinide, fenretinide, reference compound]
fat clearance (stored fat by Oil Red O and Nile Red staining) (T6PNE cells): strongly positive | fat clearance (stored fat by Oil Red O and Nile Red staining) (T6PNE cells; listed as fenretinide): induced fat clearance from T6PNE cells | p62 protein expression normalized to actin (p62): had a statistically significant effect | dihydroceramide production (dihydroceramides; 2 days after treatment): induced multiple identical dihydroceramides | ceramide (Cer)/dihydroceramide (DH-Cer) ratio (dihydroceramides; NCT+RA 10 μM, fenretinide 5 μM): substantial decrease

Molecule: CCCCCCCCCCCCCC1=C([C@H](O)[C@@H](CO)NC(=O)CCCCCCC)C1 [GT-11, N-[(1R,2S)-2-hydroxy-1-hydroxymethyl-2-(2-tridecyl-1-cyclopropenyl)ethyl] octanamide]
fat clearance (stored fat by Oil Red O and Nile Red staining) (T6PNE cells): strongly positive; also recorded: increase fat clearance

Molecule: CCN(CCCc1ccccc1)CCCc1ccccc1 [alverine, reference compound]
fatty acid-mediated repression of the human insulin promoter (human insulin promoter): reversed the fatty acid-mediated repression of the human insulin promoter | insulin promoter activity / HNF4α activation (HNF4α [1]): relatively weak activators; also recorded: fairly weak HNF4α activators

Molecule: O=C(Oc1nsnc1N1CCCCC1)N1CCCCC1 [Lalistat 2]
effect on fat clearance induced by NCT (T6PNE cells): eliminated the ability of N-trans-caffeoyltyramine to effect fat clearance; also recorded: inhibited the ability of NCT to promote fat clearance | effect on fat clearance induced by NCT (T6PNE cells; listed as Lalistat2): inhibits the effect of NCT on fat clearance

HNF4α proteolytic sensitivity / conformational change (HNF4α [3]): induced a conformational change in HNF4α
Molecule: Cc1ccc([N+](=O)[O-])cc1S(=O)(=O)n1c(C)nc2ccccc21 [BI6015]
hepatic steatosis (HNF4α [2]; in vitro and in vivo): caused hepatic steatosis in vitro and in vivo | HNF4α expression in the liver (HNF4α [2]; in vivo): caused loss of HNF4a expression in the liver; also recorded: caused loss of HNF4α expression in the liver

Molecule: CC(Cc1cccc(C(F)(F)F)c1)NCCOC(=O)c1ccccc1 (centres unmarked) [benfluorex, reference compound]
fatty acid-mediated repression of the human insulin promoter (human insulin promoter): reversed the fatty acid-mediated repression of the human insulin promoter | HbA1c [4]: effective at reducing HbA1c | insulin promoter activity / HNF4α activation (HNF4α [1]): relatively weak activators; also recorded: fairly weak HNF4α activators

Source: patent US20220362182A1, “METHODS FOR REVERSING HEPATIC STEATOSIS” (BRIGHTSEED, INC., priority 2020, published 2022)
